From ChEMBL document CHEMBL3997846, “Synthesis and activity of nucleoside-based antiprotozoan compounds” (Bioorg Med Chem, 2017) come the findings set out here.

Series [1] can be described thus: Selectivity index, ratio of IC50 for rat L6 cells to IC50 for Leishmania donovani MHOM/SD/62/ISCL2D axenic amastigotes. Type of series: toxicity. The conditions noted are these: read-out: Ratio IC50.
Series [2] has as its system Trypanosoma brucei rhodesiense. The series is described as follows: Antitrypanosomal activity against bloodstream forms of Trypanosoma brucei rhodesiense STIB900 trypomastigotes after 72 hrs by alamar blue assay. The series is classed as functional. The conditions noted are these: STIB900, 72 h.
Series [3] is described as follows: Selectivity index, ratio of IC50 for rat L6 cells to IC50 for Trypanosoma cruzi Tulahuen strain C2C4 amastigote forms harboring LacZ infected in rat L6 cells. Type of series: toxicity, cell-based. The conditions noted are these: read-out: Ratio IC50.
A further series relates to Trypanosoma cruzi. Description: Antitrypanosomal activity against Trypanosoma cruzi Tulahuen strain C2C4 amastigote forms harboring LacZ infected in rat L6 cells after 96 hrs by CPRG/Nonidet reagent based photometric method. Type of series: functional, cell-based. Conditions: Tulahuen strain C2C4, L6, 96 h.
The next series deals with Leishmania donovani. The series is described as follows: Antileishmanial activity against Leishmania donovani MHOM/SD/62/ISCL2D axenic amastigotes after 72 hrs by alamar blue assay. The series is classed as functional.
Series [4] is described as follows: Selectivity index, ratio of IC50 for rat L6 cells to IC50 for bloodstream forms of Trypanosoma brucei rhodesiense STIB900 trypomastigotes. Type of series: toxicity. The conditions noted are these: read-out: Ratio IC50.
Another series has as its system L6. Description: Cytotoxicity against rat L6 cells assessed as growth inhibition after 72 hrs by alamar blue assay. The series is classed as cell-based. The conditions noted are these: L6, 72 h.
Series [5] in a line: Selectivity index, ratio of IC50 for rat L6 cells to IC50 for chloroquine resistant Plasmodium falciparum K1 erythrocytic stage. The series is classed as toxicity. The conditions noted are these: read-out: Ratio IC50.
A further series deals with Plasmodium falciparum. Description: Antiplasmodial activity against chloroquine resistant Plasmodium falciparum K1 erythrocytic stage assessed as reduction in [3H]hypoxanthine incorporation after 48 hrs by liquid scintillation counting assay. The series is classed as functional.

Bounds are passed on as bounds.

Consider `CSC[C@H]1O[C@@H](n2cnc3c(N)nc(I)nc32)[C@H](O)[C@@H]1O`, for which the selectivity ratio in series [1] stood at 1; in [3] it was 2; in [4], 27. The IC50 in series [2] amounted to 5 µM; in the series on Trypanosoma cruzi, 88 µM; with Leishmania donovani, 132 µM.
With `C[C@H]1O[C@@H](n2cnc3c(N)nc(Cl)nc32)[C@H](O)[C@@H]1O`, the selectivity ratio in series [1] is 3; in series [3], 0.8; in series [4], 2. Besides, the IC50 in series [2] is 84 µM; in the series on Trypanosoma cruzi, 189 µM; with Leishmania donovani, 49 µM.
For the compound `CNc1ncnc2c1ncn2[C@@H]1O[C@H](C)[C@@H](O)[C@H]1O`, the selectivity ratio was under 0.7 in series [1], 1 in series [3] and 1 in series [4]. In addition, the IC50 was 206 µM in [2], 195 µM in the series with Trypanosoma cruzi and over 380 µM with Leishmania donovani.
For the compound `CNc1nc(C#N)nc2c1ncn2[C@@H]1O[C@H](C)[C@@H](O)[C@H]1O`, the selectivity ratio in series [1] is 0.6; in [3], 2; in series [4] it was 0.8. Further, the IC50 was found to be 111 µM in series [2], 45 µM in the series on Trypanosoma cruzi and 148 µM in the series with Leishmania donovani.
As for `C[C@H]1O[C@@H](n2cnc3c(N)nc(NN)nc32)[C@H](O)[C@@H]1O`, the selectivity ratio came to 3 in [1], 1 in series [3] and 1 in series [4]. Moreover, the figures for the IC50 (in series [2]; in the series with Trypanosoma cruzi; with Leishmania donovani) were 132 µM, 147 µM and 73 µM, respectively.
As to `C[C@H]1O[C@@H](n2cnc3c(N)nc(F)nc32)[C@H](O)[C@@H]1O`, the selectivity ratio in series [1] was 2; in [3] it was 0.3; in series [4], under 0.1. Also, the IC50 amounted to 65 µM in series [2], 7.1 µM in the series on Trypanosoma cruzi and 0.88 µM with Leishmania donovani.
With `C[C@H]1O[C@@H](n2cnc3c(N)nc(N=[N+]=[N-])nc32)[C@H](O)[C@@H]1O`, the selectivity ratio in [1] is 2; in [3], 1; in series [4], 1. Moreover, the figures for the IC50 (in series [2]; in the series on Trypanosoma cruzi; in the series with Leishmania donovani) were 137 µM, 167 µM and 125 µM, respectively.
On to `CNc1nc(I)nc2c1ncn2[C@@H]1O[C@H](C)[C@@H](O)[C@H]1O`, for which the values for the selectivity ratio in [1], in series [3] and in series [4] were 0.7, 1 and 3, respectively. The IC50 in series [2] turned out to be 49 µM; in the series on Trypanosoma cruzi, 126 µM; in the series on Leishmania donovani, 199 µM.
For `C[C@H]1O[C@@H](n2cnc3c(N)nc(N)nc32)[C@H](O)[C@@H]1O`, the results for the selectivity ratio in series [1], in [3] and in series [4] were 7, under 1 and 2, respectively. Besides, the figures for the IC50 (in [2]; with Trypanosoma cruzi; in the series on Leishmania donovani) were 224 µM, over 340 µM and 51 µM, respectively.
As for `CNc1nc(F)nc2c1ncn2[C@@H]1O[C@H](C)[C@@H](O)[C@H]1O`, the selectivity ratio in [1] stood at 0.7; in series [3] it was 12; in [4], 1. For the same compound, the figures for the IC50 (in series [2]; in the series on Trypanosoma cruzi; in the series with Leishmania donovani) were 194 µM, 20 µM and over 353 µM, respectively.
For the compound `C[C@H]1O[C@@H](n2cnc3c(N)nc(I)nc32)[C@H](O)[C@@H]1O`, the selectivity ratio in series [1] is 0.5; in series [3], 0.9; in series [4] it was 4. Moreover, the IC50 in [2] was 27 µM; in the series with Trypanosoma cruzi it was 120 µM; in the series with Leishmania donovani it was 208 µM.
For the compound `C[C@H]1O[C@@H](n2cnc3c(N)nc(C#N)nc32)[C@H](O)[C@@H]1O`, the results for the selectivity ratio in [1], in series [3] and in series [4] were 2, 1 and 2, respectively. In addition, the IC50 in [2] worked out at 79 µM; with Trypanosoma cruzi, 144 µM; in the series on Leishmania donovani it was 100 µM.
As to `CNc1ncnc2c1ncn2[C@@H]1O[C@H](CSC)[C@@H](O)[C@H]1O`, the selectivity ratio in [1] was under 0.5; in [3] it was 0.8; in [4], 10. Moreover, the values for the half-maximal inhibitory concentration (IC50) (in series [2]; in the series with Trypanosoma cruzi; with Leishmania donovani) were 16 µM, 191 µM and over 320 µM, respectively.
As to `CSC[C@H]1O[C@@H](n2cnc3c(/N=C/N(C)C)nc(F)nc32)[C@H](O)[C@@H]1O`, the selectivity ratio was 0.6 in series [1], under 0.1 in series [3] and under 0.1 in series [4]. The IC50 in series [2] came to 62 µM; in the series on Trypanosoma cruzi it was 114 µM; in the series on Leishmania donovani, 2.5 µM.
With `CSC[C@H]1O[C@@H](n2cnc3c(N)nc(C#N)nc32)[C@H](O)[C@@H]1O`, the selectivity ratio in [1] worked out at 0.6; in series [3], 1; in [4] it was 2. Besides, the IC50 came out at 66 µM in [2], 150 µM in the series with Trypanosoma cruzi and 266 µM in the series with Leishmania donovani.
In the case of `C[S+]([O-])C[C@H]1O[C@@H](n2cnc3c(N)nc(Cl)nc32)[C@H](O)[C@@H]1O` (stereo partly drawn), the selectivity ratio was under 1 in [1], under 1 in series [3], 18 in [5] and 3 in [4]. For the same compound, the IC50 in series [2] was 75 µM; in the series on L6 it was 259 µM; in the series on Trypanosoma cruzi, over 260 µM; in the series on Plasmodium falciparum it was 14 µM; in the series on Leishmania donovani, over 260 µM.
Turning to `CNc1nc(I)nc2c1ncn2[C@@H]1O[C@H](CSC)[C@@H](O)[C@H]1O`, the selectivity ratio in [1] was 1; in [3], 1; in series [4] it was 6. For the same compound, the IC50 in series [2] came out at 21 µM; with Trypanosoma cruzi it was 104 µM; in the series with Leishmania donovani it was 101 µM.
As for `CSC[C@H]1O[C@@H](n2cnc3c(N)nc(F)nc32)[C@H](O)[C@@H]1O`, the selectivity ratio in series [1] turned out to be 0.7; in series [3], 0.2; in series [4], 0.1. Besides, the IC50 worked out at 4.3 µM in [2], 2.6 µM in the series on Trypanosoma cruzi and 0.8 µM with Leishmania donovani.
For `CSC[C@H]1O[C@@H](n2cnc3c(N(C)N=O)nc(F)nc32)[C@H](O)[C@@H]1O`, the selectivity ratio in series [1] was determined as 0.6; in series [3], 0.9; in [4], 2. Further, the IC50 in series [2] was 56 µM; in the series with Trypanosoma cruzi it was 129 µM; with Leishmania donovani it was 190 µM.
`CS(=O)(=O)C[C@H]1O[C@@H](n2cnc3c(N)nc(F)nc32)[C@H](O)[C@@H]1O`: the selectivity ratio in [1] came out at 0.1; in series [3], 0.1; in series [5], 0.6; in [4] it was 0.3. Moreover, the IC50 in [2] turned out to be 17 µM; with L6, 5 µM; with Trypanosoma cruzi, 35 µM; with Plasmodium falciparum, 8 µM; with Leishmania donovani it was 37 µM.
Regarding `C[S+]([O-])C[C@H]1O[C@@H](n2cnc3c(N)nc(F)nc32)[C@H](O)[C@@H]1O` (stereo partly drawn), the selectivity ratio in series [1] was found to be 0.4; in series [3] it was 0.2; in series [5], 2; in series [4], 0.4. Also, the IC50 in series [2] turned out to be 34 µM; with L6 it was 13 µM; with Trypanosoma cruzi, 74 µM; in the series with Plasmodium falciparum, 5.8 µM; in the series on Leishmania donovani, 33 µM.
On to `CSC[C@H]1O[C@@H](n2cnc3c(N)nc(N=[N+]=[N-])nc32)[C@H](O)[C@@H]1O`, for which the selectivity ratio in [1] came to 0.8; in [3], 2; in [4] it was 5. Moreover, the IC50 in [2] stood at 51 µM; in the series on Trypanosoma cruzi, 144 µM; in the series on Leishmania donovani it was 288 µM.
Regarding `CNc1nc(C#N)nc2c1ncn2[C@@H]1O[C@H](CSC)[C@@H](O)[C@H]1O`, the values for the selectivity ratio in series [1], in [3] and in series [4] were 1, 1 and 0.8, respectively. The IC50 in [2] turned out to be 30 µM; in the series on Trypanosoma cruzi, 25 µM; in the series with Leishmania donovani, 22 µM.
`CC(=O)O[C@@H]1[C@H](OC(C)=O)[C@@H](CS(C)(=O)=O)O[C@H]1n1cnc2c(N)nc(Cl)nc21`: the selectivity ratio is under 0.6 in [1], under 0.6 in series [3], 11 in series [5] and 8 in series [4]. Also, the IC50 in series [2] is 14 µM; with L6 it was 114 µM; with Trypanosoma cruzi, over 200 µM; with Plasmodium falciparum, 10 µM; in the series on Leishmania donovani, over 200 µM.
As for `CSC[C@H]1O[C@@H](n2cnc3c(N)nc(Cl)nc32)[C@H](O)[C@@H]1O`, the figures for the selectivity ratio in [1], in series [3] and in [4] were 5, under 1 and 1, respectively. The results for the IC50 (in [2]; with Trypanosoma cruzi; with Leishmania donovani) were 203 µM, over 270 µM and 60 µM, respectively.
Consider `CSC[C@H]1O[C@@H](n2cnc3c(N)nc(NN)nc32)[C@H](O)[C@@H]1O`, for which the selectivity ratio in series [1], in series [3] and in series [4] was 1 in each case. Also, the IC50 in series [2] was 149 µM; in the series with Trypanosoma cruzi it was 157 µM; in the series with Leishmania donovani, 173 µM.
With `O=C(Cn1ccnc1[N+](=O)[O-])NCc1ccccc1` [BENZNIDAZOLE], the IC50 was over 385 µM with L6 and 1.64 µM in the series on Trypanosoma cruzi.
Regarding `CCN(CC)CCCC(C)Nc1ccnc2cc(Cl)ccc12` (stereo not drawn) [CHLOROQUINE], in the series with L6, the IC50 was 91 µM.
As for `CCCCCCCCCCCCCCCCOP(=O)([O-])OCC[N+](C)(C)C` [MILTEFOSINE], the IC50 was 137 µM with L6 and 0.3 µM with Leishmania donovani.
